Experimental findings from patent EP4559898A1, “NOVEL IONIZABLE CATIONIC LIPIDS CONTAINING THIOETHER LINKAGE” (AldexChem Kft., priority 2023, dated 2025) are described below.

One data set deals with HeLa. In words: Transfection efficiency with Luciferase-mRNA (SecNLuc), Nano-Glo assay. Format: cell-based. The note with it: 24 hours, luminescence (Nano-Glo); for Transfection 10 ng mRNA: 10 ng SecNLuc mRNA/well; for Transfection 50 ng mRNA: 50 ng SecNLuc mRNA/well; for Transfection 100 ng mRNA: 100 ng SecNLuc mRNA/well. Here is the method: • 1. Prepare mRNA solution by adding 100 ng mRNA (SecNLuc, #P009024, RiboPro) to 5 µl Opti-MEM • multiply by number of wells, include different concentrations and add 10% extra • a standard set-up we use is 100 ng - 50 ng - 10 ng mRNA/well in triplicate, which would need […] mRNA (includes 10% extra)
• 2. (If applicable) Prepare different concentrations in Opti-MEM (for instance 100/50/10 ng). • 3. Add 10 µl to each well and mix carefully by pipetting. • 4. Mix by swirling the plate horizontally at modest speed. Reverse in direction 3 times. • 5. Incubate for 24 hours (incubator).
This protocol is applied to measure luciferase activity for secreted NanoLuc and is based on the protocol by Promega (Nano-Glo® Luciferase Assay System #N1110-1150). The protocol is designed for a 384-wells plate, but volumes can be changed accordingly for other plates.
• 1. Plate cells (HeLa) in 96-well plate, grow until 80% confluent and transfect with SecNanoLuc mRNA and incubate for the desired period (24h). • 2. After incubation, the translated protein is accumulated in the medium. Transfer medium to a new plate or tubes . • 3. Transfer 12 µl of each sample to a black-walled, clear-bottom 384-well plate Black-walled plates are important to prevent shine-through of luminescence from other wells; alternatively, multiple wells between samples can be left empty. • 4. Set-up plate reader • 5. Prepare the desired amount of Nano-Gio® Luciferase Assay Reagent by combining one volume of Nano-Glo® Luciferase Assay Substrate with 50 volumes of Nano-Glo® Luciferase Assay Buffer: • a. composition: 100 mM MES pH 6; 1 mM EDTA; 0.5% […]; 150 mM KCl; 1 mM DTT; 35 mM Thiourea; • b. briefly spin tubes containing substrate in a microcentrifuge before use. • 6. Add and mix (by pipetting) 12 µl Nano-Glo® Luciferase Assay Reagent per well • Wait approximately 3 minutes before measuring luminescence. The luminescence intensity will decay gradually, with a signal half-life of approximately 120 minutes at room temperature. • 7. Measure luminescence in plate reader using standard protocol luciferase (this includes mixing sample in plate reader)

Data set [1] in a line: Encapsulation efficiency (RiboGreen assay) of mRNA-LNPs. Format: physicochemical. The following applies: mRNA-LNP formulated with tested lipid; RiboGreen with/without Triton X-100. How it is done:
1. Preparation of sample stock solutions: In the top row of the 96-well plate (Row A in the plate), add 297 µL of TE buffer pH 7.4 to a single well for each sample plus a single well for a PBS blank using a multichannel pipette. TE buffer preparation:
2. Add 3 µL of sample (at 0.5mg/ml) to these wells for a final volume of 300 µL. Add 3 µL of PBS to the blank well. Pipette to mix. This is your stock solution for each sample. The final RNA concentration of these stock solutions should be approximately 4-7 µg/mL. 3. mRNA-LNP sample setup: • a. Add 50 µL of TE buffer pH 7.5 to the two wells directly below each sample (Rows B and C in the plate). • b. Add 50 µL of sample stock solution from Row A into the wells in Rows B and C (this assay is run in duplicate. All liquid handling should be done using a multichannel pipette). • c. Add 50 µL of Triton buffer to the wells in Rows D and E (in the plate) below each sample. • d. Add 50 µL of sample stock solution from Row A into the wells in Rows D and E. 4. RiboGreen RNA standard curve setup: Dilute the RNA standard to produce an RNA stock at a final concentration of 20 µg/mL in TE buffer pH 7.4. The final volume should be 150 µL. Set up a standard curve (in duplicate) as using the RNA stock (20 µg/mL siRNA), TE buffer pH 7.5, and Triton X-100 buffer according the Table 2 below. Triton X-100 buffer preparation:
5. Once samples and standard curve are plated, incubate the plate at 37°C for 10 min to lyse mRNA-LNP in the presence of Triton X-100 buffer. 6. Meanwhile, prepare RiboGreen Solution: Sum the total number of sample wells and standard curve wells. Add three to this number, and multiply the total by 100. This is the total volume, in µL, of RiboGreen Solution needed for this assay. In a 15 mL RNAse-free Falcon tube, dilute the RiboGreen Reagent 1:100 into TE buffer pH 7.5 to the total volume calculated. 7. Addition of RiboGreen Solution and sample readings: Remove a 96-well plate from 37°C incubator; let it cool to room temperature as RiboGreen binding is somewhat temperature dependent. Add 100 µL of RiboGreen Solution to each well. Pop any air bubbles with a needle. Read using fluorescent plate reader (excitation = 480, emission = 525). 8. Sample analysis: Use the data generated by the RiboGreen standard curve to calculate the concentration of mRNA.

On to `CCCCCCCCC(CCCCCC)C(=O)OCCCCCCN(CCCCO)CCCCCCOC(=O)C(CCCCCC)CCCCCCCC` (centres unmarked) [ALC-0315 ref., reference compound], for which, in the data set with HeLa, the “Transfection 10 ng mRNA” value was 3,21E+06, the “Transfection 50 ng mRNA” value is on record as 1.47E+07 and the “Transfection 100 ng mRNA” value is 1,04E+07. This compound also registered an EE in data set [1] of 94%.
As to `CCCCCCCCCCSC(CCCC)C(=O)OCCCCCCN(CCCCO)CCCCCCOC(=O)C(CCCC)SCCCCCCCCCC` (centres unmarked) [Example 1, ((4-hydroxybutyl)azanediyl)bis(hexane-6,1-diyl) bis(2-(decylthio)hexanoate)], in the data set on HeLa, the “Transfection 10 ng mRNA” value was 3,81E+06, the “Transfection 50 ng mRNA” value was 1,83E+07 and the “Transfection 100 ng mRNA” value is 1,69E+07. The same compound had an EE in data set [1] of 53%.
Consider `CCCCCCCCC(SCCCCC)C(=O)OCCCCCCN(CCCCO)CCCCCCOC(=O)C(CCCCCCCC)SCCCCC` (centres unmarked) [Example 2, ((4-hydroxybutyl)azanediyl)bis(hexane-6,1-diyl) bis(2-(pentylthio)decanoate)], for which, in the data set with HeLa, the “Transfection 10 ng mRNA” value is recorded as 2,40E+06, the “Transfection 50 ng mRNA” value was 1,60E+07 and the “Transfection 100 ng mRNA” value is reported as 1,39E+07. Besides, the EE in data set [1] worked out at 55%.
`CCCCCCCCCCSC(CCCC)C(=O)OCCCCCCCCN(CCCCO)CCCCCCCCOC(=O)C(CCCC)SCCCCCCCCCC` (centres unmarked) [Example 3, ((4-hydroxybutyl)azanediyl)bis(octane-8,1-diyl) bis(2-(decylthio)hexanoate)]: in the data set on HeLa, the “Transfection 10 ng mRNA” value is 9,69E+05, the “Transfection 50 ng mRNA” value is given as 1,02E+07 and the “Transfection 100 ng mRNA” value is 1,37E+07. This compound also came in with an EE in data set [1] of 77%.
Turning to `CCCCCCCCCCSC(CCCC)C(=O)OCCCCCCN(CCO)CCCCCCOC(=O)C(CCCC)SCCCCCCCCCC` (centres unmarked) [Example 4, ((2-hydroxyethyl)azanediyl)bis(hexane-6,1-diyl) bis(2-(decylthio)hexanoate)], in the data set on HeLa, the “Transfection 10 ng mRNA” value is listed as 2,53E+06, the “Transfection 50 ng mRNA” value is 1,23E+07 and the “Transfection 100 ng mRNA” value was 8,17E+06. This compound also returned an EE in data set [1] of 85%.
Turning to `CCCCCCCCCCSC(CCCC)C(=O)OCCCCCCN(CCCCCCOC(=O)C(CCCC)SCCCCCCCCCC)CCC1CCCN1C` (centres unmarked) [Example 5, ((2-(1-methylpyrrolidin-2-yl)ethyl)azanediyl)bis(hexane-6,1-diyl) bis(2-(decylthio)hexanoate)], in the data set with HeLa, the “Transfection 10 ng mRNA” value was 4,17E+05, the “Transfection 50 ng mRNA” value is reported as 3,34E+06 and the “Transfection 100 ng mRNA” value is given as 6,52E+06. The compound further displayed an EE in data set [1] of 96%.
On to `CCCCCCCCC(SCCCCCCC)C(=O)OCCCCCCN(CCCCO)CCCCCCOC(=O)C(CCCCCCCC)SCCCCCCC` (centres unmarked) [Example 6, ((4-hydroxybutyl)azanediyl)bis(hexane-6,1-diyl) bis(2-(heptylthio)decanoate)], for which, in the data set on HeLa, the “Transfection 10 ng mRNA” value is recorded as 3,47E+06, the “Transfection 50 ng mRNA” value is reported as 1,83E+07 and the “Transfection 100 ng mRNA” value was 2,52E+07. The same compound registered an EE in data set [1] of 90%.
Take `CCCCCCCCCCSC(CCCCCCCC)C(=O)OCCCCCCN(CCCCO)CCCCCCOC(=O)C(CCCCCCCC)SCCCCCCCCCC` (centres unmarked) [Example 7, ((4-hydroxybutyl)azanediyl)bis(hexane-6,1-diyl) bis(2-(decylthio)decanoate)]: in the data set on HeLa, the “Transfection 10 ng mRNA” value was 1,62E+06, the “Transfection 50 ng mRNA” value is recorded as 1,47E+07 and the “Transfection 100 ng mRNA” value is 2,01E+07. In data set [1], this compound yielded an EE of 92%.
Turning to `CCCCCCCCCCSC(CCCCCC)C(=O)OCCCCCCN(CCCCO)CCCCCCOC(=O)C(CCCCCC)SCCCCCCCCCC` (centres unmarked) [Example 8, ((4-hydroxybutyl)azanediyl)bis(hexane-6,1-diyl) bis(2-(decylthio)octanoate)], in the data set with HeLa, the “Transfection 10 ng mRNA” value is 2,80E+06, the “Transfection 50 ng mRNA” value was 1,36E+07 and the “Transfection 100 ng mRNA” value is recorded as 1,11E+07. The EE in data set [1] is 86%.
Take `CCCCCCCSC(CCCCCC)C(=O)OCCCCCCN(CCCCO)CCCCCCOC(=O)C(CCCCCC)SCCCCCCC` (centres unmarked) [Example 9, ((4-hydroxybutyl)azanediyl)bis(hexane-6,1-diyl) bis(2-(heptylthio)octanoate)]: in the data set with HeLa, the “Transfection 10 ng mRNA” value is listed as 2,79E+06, the “Transfection 50 ng mRNA” value is on record as 1,36E+07 and the “Transfection 100 ng mRNA” value is reported as 1,43E+07. In addition, the EE in data set [1] turned out to be 67%.
For the compound `CCCCCCCCCCCCCCSCC(=O)OCCCCCCN(CCCCO)CCCCCCOC(=O)CSCCCCCCCCCCCCCC` [Example 10, ((4-hydroxybutyl)azanediyl)bis(hexane-6,1-diyl) bis(2-(tetradecylthio)acetate)], in the data set on HeLa, the “Transfection 10 ng mRNA” value is on record as 2,92E+05, the “Transfection 50 ng mRNA” value is 3,57E+06 and the “Transfection 100 ng mRNA” value is recorded as 1,10E+07. In data set [1], this compound showed an EE of 83%.
